Numbered stars: 1 amine (or outer) side, 2 acyl side, 3 side chain; on linkers, the order of the positions; unused ones are H or OH. Square brackets hold non-standard residues; d marks the D form. Peptide text beside a SMILES is read from it. * marks the point of attachment. ξ: configuration not given here. X1 = O=C(O)CCCc1cc2c(O[C@@H]3O[C@H](CO)[C@H](O)[C@H](O)[C@H]3O)ccc(COC(=O)*)c2o1; X3 = O=C(O)c1cc2c(O[C@@H]3O[C@H](CO)[C@H](O)[C@H](O)[C@H]3O)ccc(COC(=O)*)c2[se]1; X2 = O=C(O)CCc1cc2c(O[C@@H]3O[C@H](CO)[C@H](O)[C@H](O)[C@H]3O)ccc(COC(=O)*)c2s1; X4 = O=C(O)c1cc2c(O[C@@H]3O[C@H](CO)[C@H](O)[C@H](O)[C@H]3O)ccc(COC(=O)*)c2o1; Dil(5ξ) = CCC(C)[C@@H]([C@@H](CC(=O)[*:2])OC)N(C)[*:1]; Dolaproine = CO[C@@H]([C@@H]1CCCN1)[C@@H](C)C(=O)O; NMeV = CN[C@H](C(=O)O)C(C)C; ξF = NC(Cc1ccccc1)C(=O)O
Key:
[1] = Chemical stability in PBS buffer solution (pH 7.4); type: physicochemical; conditions: 37° C., read-out: Chemical stability t1/2
Experimental: The compounds of the present invention (A-15, A-16, A-19, A-21 to A-25, A-28, A-29, A-36 and A-69) were each dissolved in DMSO to a concentration of 10 mM and then mixed with a PBS buffer solution (pH 7.4) to prepare as a solution having a concentration of 500 μM (5% DMSO). MPS, used as a standard material, was also prepared as a solution having a concentration of 500 μM in a PBS buffer solution. 420 μL of a PBS buffer solution and […] of each of 500 μM compounds of the present invention and MPS were mixed to prepare a total of 700 μL of reaction solution. The reaction of the mixed solution was initiated in a constant temperature incubator at 37° C. The reaction solution was aliquoted in an amount of 70 μL at 0 minutes before the reaction and at certain times after the reaction, and the remaining compounds of the present invention or MPS or the liberated MMAF or MMAE were quantitatively analyzed using the HPLC method. […] In addition, the remaining amount of Compound A-69 in a PBS buffer solution (pH 7.4) according to the incubation time is shown in FIG. 5.

[2] = Rat plasma stability (Method 3); type: in vitro ADME; conditions: Method 3 (rat plasma), 37° C.; read-out: Plasma stability t1/2
Experimental: Method 3: Rat Plasma Stability
(§1) The compounds of the present invention (A-22, A-69) and MPS, used as a standard material, were each dissolved in DMSO and a PBS buffer solution to a concentration of 30 mM, and then mixed in rat plasma (Biochemed, 031-APSC-PMG) to a final concentration of 300 μM (final 1.0% DMSO) and 600 μM of the compounds and MPS, respectively. The reaction of the mixed solution in plasma was initiated in a constant temperature incubator at 37° C. Before the reaction and on certain days after the reaction, the above samples were aliquoted in an amount of 100 μL, and 200 μL of ACN was added to terminate the reaction, mixed, and then vortexed for about 1 minute, and then centrifuged at 4° C. for 15 minutes at 14,000 rpm to precipitate plasma proteins. Each supernatant obtained by centrifugation was collected and quantitatively analyzed using the HPLC method.
(§2) The results of measuring the plasma half-life of the compounds of the present invention using Methods 1 to 4 above are shown in Table 3.

[3] = Human plasma stability (Method 2); type: in vitro ADME; conditions: Method 2 (human plasma), 37° C.; read-out: Plasma stability t1/2
Experimental: Method 2: Human Plasma Stability
as §1, with “invention (A-19, A-22, A-25, A-36,” for “invention (A-22,”, “in human” for “in rat”, “(Biochemed, 752PR-SC-PMG)” for “(Biochemed, 031-APSC-PMG)”
as §2

[4] = Beagle dog plasma stability (Method 4); type: in vitro ADME; conditions: Method 4 (beagle dog plasma), 37° C.; read-out: Plasma stability t1/2
Experimental: Method 4: Beagle Dog Plasma Stability
as §1, with “in beagle dog” for “in rat”, “(Biochemed, 014-APSC-PMG)” for “(Biochemed, 031-APSC-PMG)”
as §2

[5] = Mouse plasma stability (Method 1); type: in vitro ADME; conditions: Method 1 (mouse plasma), 37° C.; read-out: Plasma stability t1/2
Experimental: Method 1: Mouse Plasma Stability
as §1, with “invention (A-16, A-22, A-25, A-36,” for “invention (A-22,”, “in mouse” for “in rat”, “(Biochemed, 029-APSC-PMG)” for “(Biochemed, 031-APSC-PMG)”, “of acetonitrile (ACN, Sigma, SA-271004-1L)” for “of ACN”, “centrifuged (Beckman, B30150)” for “centrifuged”
as §2

SMILES	half-life at 100 µM [1]	half-life at 300 µM [2]	half-life at 300 µM [3]	half-life at 300 µM [4]	half-life at 300 µM [5]
CCC(C)[C@@H]([C@@H](CC(=O)N1CCC[C@H]1[C@H](OC)[C@@H](C)C(=O)NC(Cc1ccccc1)C(=O)O)OC)N(C)C(=O)[C@@H](NC(=O)[C@H](C(C)C)N(C)C(=O)OCc1ccc(O[C@@H]2O[C@H](CO)[C@H](O)[C@H](O)[C@H]2O)c2cc(CCCC(=O)O)oc12)C(C)C (some centres unmarked) [Compound A-22] (X1-[NMeV]V[Dil(5ξ)][Dolaproine][ξF]-OH)	> 168 h	> 168 h	> 168 h	> 168 h	> 168 h
CCC(C)[C@@H]([C@@H](CC(=O)N1CCC[C@H]1[C@H](OC)[C@@H](C)C(=O)NC(Cc1ccccc1)C(=O)O)OC)N(C)C(=O)[C@@H](NC(=O)[C@H](C(C)C)N(C)C(=O)OCc1ccc(O[C@@H]2O[C@H](CO)[C@H](O)[C@H](O)[C@H]2O)c2cc(C(=O)O)oc12)C(C)C (some centres unmarked) [Compound A-24] (X4-[NMeV]V[Dil(5ξ)][Dolaproine][ξF]-OH)	> 168 h				
CCC(C)[C@@H]([C@@H](CC(=O)N1CCC[C@H]1[C@H](OC)[C@@H](C)C(=O)NC(Cc1ccccc1)C(=O)O)OC)N(C)C(=O)[C@@H](NC(=O)[C@H](C(C)C)N(C)C(=O)OCc1ccc(O[C@@H]2O[C@H](CO)[C@H](O)[C@H](O)[C@H]2O)c2cc(CCC(=O)O)sc12)C(C)C (some centres unmarked) [Compound A-16] (X2-[NMeV]V[Dil(5ξ)][Dolaproine][ξF]-OH)	> 168 h				> 168 h
CC[C@H](C)[C@@H]([C@@H](CC(=O)N1CCC[C@H]1[C@H](OC)[C@@H](C)C(=O)N[C@H](C)[C@@H](O)c1ccccc1)OC)N(C)C(=O)[C@@H](NC(=O)[C@H](C(C)C)N(C)C(=O)OCc1ccc(O[C@@H]2O[C@H](CO)[C@H](O)[C@H](O)[C@H]2O)c2cc(CCC(=O)NCCOCCOCCOCCN=[N+]=[N-])oc12)C(C)C [Compound A-25]	> 168 h		> 168 h		> 168 h
CCC(C)[C@@H]([C@@H](CC(=O)N1CCC[C@H]1[C@H](OC)[C@@H](C)C(=O)NC(Cc1ccccc1)C(=O)O)OC)N(C)C(=O)[C@@H](NC(=O)[C@H](C(C)C)N(C)C(=O)OCc1ccc(O[C@@H]2O[C@H](CO)[C@H](O)[C@H](O)[C@H]2O)c2cc(Cn3cc(COCCOCCOCCOC)nn3)sc12)C(C)C (some centres unmarked) [Compound A-19]	> 168 h		> 168 h		
C#CCOCCOCCOCCOCC(=O)NCc1cc2c(O[C@@H]3O[C@H](CO)[C@H](O)[C@H](O)[C@H]3O)ccc(COC(=O)N(C)[C@H](C(=O)N[C@H](C(=O)N(C)[C@@H](C(C)CC)[C@@H](CC(=O)N3CCC[C@H]3[C@H](OC)[C@@H](C)C(=O)NC(Cc3ccccc3)C(=O)O)OC)C(C)C)C(C)C)c2s1 (some centres unmarked) [Compound A-21]	> 168 h				
C#CCOCCOCCOCCOCC(=O)NCc1cc2c(O[C@@H]3O[C@H](CO)[C@H](O)[C@H](O)[C@H]3O)ccc(COC(=O)N(C)[C@H](C(=O)N[C@H](C(=O)N(C)[C@@H](C(C)CC)[C@@H](CC(=O)N3CCC[C@H]3[C@H](OC)[C@@H](C)C(=O)NC(Cc3ccccc3)C(=O)O)OC)C(C)C)C(C)C)c2o1 (some centres unmarked) [Compound A-28]	> 168 h				
CC[C@H](C)[C@@H]([C@@H](CC(=O)N1CCC[C@H]1[C@H](OC)[C@@H](C)C(=O)N[C@H](C)[C@@H](O)c1ccccc1)OC)N(C)C(=O)[C@@H](NC(=O)[C@H](C(C)C)N(C)C(=O)OCc1ccc(O[C@@H]2O[C@H](C(=O)O)[C@@H](O)[C@H](O)[C@H]2O)c2cc(Cn3cc(COCCOCCOCCOC)nn3)[se]c12)C(C)C [Compound A-69]	> 168 h	> 168 h	> 168 h	> 168 h	> 168 h
CCC(C)[C@@H]([C@@H](CC(=O)N1CCC[C@H]1[C@H](OC)[C@@H](C)C(=O)NC(Cc1ccccc1)C(=O)O)OC)N(C)C(=O)[C@@H](NC(=O)[C@H](C(C)C)N(C)C(=O)OCc1ccc(O[C@@H]2O[C@H](CO)[C@H](O)[C@H](O)[C@H]2O)c2cc(C(=O)O)[se]c12)C(C)C (some centres unmarked) [Compound A-29] (X3-[NMeV]V[Dil(5ξ)][Dolaproine][ξF]-OH)	> 168 h				
CCC(C)[C@@H]([C@@H](CC(=O)N1CCC[C@H]1[C@H](OC)[C@@H](C)C(=O)NC(Cc1ccccc1)C(=O)O)OC)N(C)C(=O)[C@@H](NC(=O)[C@H](C(C)C)N(C)C(=O)OCc1ccc(O[C@@H]2O[C@H](CO)[C@H](O)[C@H](O)[C@H]2O)c2cc(CCC(=O)NCCOCCOCCOCCN=[N+]=[N-])sc12)C(C)C (some centres unmarked) [Compound A-15]	> 168 h				
CCC(C)[C@@H]([C@@H](CC(=O)N1CCC[C@H]1[C@H](OC)[C@@H](C)C(=O)NC(Cc1ccccc1)C(=O)O)OC)N(C)C(=O)[C@@H](NC(=O)[C@H](C(C)C)N(C)C(=O)OCc1ccc(O[C@@H]2O[C@H](CO)[C@H](O)[C@H](O)[C@H]2O)c2cc(CCCC(=O)NCCOCCOCCOCCN=[N+]=[N-])oc12)C(C)C (some centres unmarked) [Compound A-23]	> 168 h				

Source: patent publication US12576156B2, “Compound comprising self-immolative group and ligand-drug conjugate comprising same” (priority 2022, dated 2026)
